In publication PMC3217100 (2011):
Like-named read-outs stand apart in the source and are kept apart here.

Tests used:
[1] = target: T1, nicotinic α4β2 receptor (α4β2 nAChR) (Rattus norvegicus, UniProt P09483+P12390); assay: radioligand competition with 3H-cytisine, rat brain homogenate; type: binding; settings: read-out: Ki ^a; cited from earlier work
[2] = target: T1, nicotinic α4β2 receptor (α4β2 nAChR); assay: as above; type: binding

Structure (SMILES)	Ki [1] [nM]	Ki [2] [nM]
FCCCc1cncc(OC[C@@H]2CCCN2)c1 [compound 3, Nifrolidine]	0.8	
FCCCc1cncc(OC[C@@H]2CCN2)c1 [compound 4, 3-(2-(S)-azetidinylmethoxy)-5-(3′-fluoropropyl)pyridine]		0.67
